Source: patent US20240085425A1, “BIOMARKER AND APPLICATION THEREOF” (ADLAI NORTYE BIOPHARMA CO., LTD., priority 2022, published 2024)
Residues, ends and D or L forms follow the SMILES beside them. *: point of attachment. Cbz = O=C(OCc1ccccc1)*

Columns and labels:
Type in all cases: cell-based
[1] = tested on: non-phosphorylated β-catenin; test: Western blot of non-phosphorylated β-catenin content in DU4475 cells; settings: overnight, read-out: Non-phosphorylated β-catenin content inhibition IC50
Text: (§1) The Wnt signaling pathway is a key pathway for abnormal tumor growth. In colon cancer, liver cancer, pancreatic cancer and other cancers, a large number of patients have abnormal activation of the Wnt signaling pathway. The Wnt signaling pathway depends on the fine balance of β-catenin protein level. When Wnt signaling is not activated, β-catenin is phosphorylated by CK1 and APC/Axin/GSK-3β complexes, and the β-catenin protein is kept at a low level through ubiquitin-dependent proteasome degradation. When the Wnt signaling pathway is activated, β-catenin maintains a stable state of non-phosphorylation, and non-phosphorylated β-catenin can be transported into the nucleus through Rac1 and other factors, and plays a transcriptional regulatory role by binding to LEF/TCF transcription factors in the nucleus, activates downstream target genes such as C-myc and Cyclin D1, and promotes cell proliferation. Therefore, abnormal activation of the Wnt signaling pathway in tumor cells will lead to abnormal proliferation of tumors. […]
(§2) Add 500 μL of the compound with the highest concentration shown in FIG. 1 to each well of the 6-well cell culture plate, and make a 10-fold gradient dilution of the compound concentration. […] Load the protein sample directly to the SDS-PAGE gel for electrophoresis separation, transfer the protein on the SDS-PAGE gel to the PVDF membrane; after the transfer was completed, the protein was blocked by Western blocking solution, then Rabbit anti-β-catenin non-phospho S37/After T41 (ab278503) was added and the protein was incubated at room temperature for one hour and washed, the content of non-phosphorylated β-catenin was detected by incubation with Goat Anti-Rabbit IgG H&L (HRP) (ab6721). […]

[2] = tested on: non-phosphorylated β-catenin; test: Western blot of non-phosphorylated β-catenin content in Colo205 cells
Text: The Wnt signaling pathway is a key pathway for abnormal tumor growth. In colon cancer, liver cancer, pancreatic cancer and other cancers, a large number of patients have abnormal activation of the Wnt signaling pathway. The Wnt signaling pathway depends on the fine balance of β-catenin protein level. When Wnt signaling is not activated, β-catenin is phosphorylated by CK1 and APC/Axin/GSK-3β complexes, and the β-catenin protein is kept at a low level through ubiquitin-dependent proteasome degradation. When the Wnt signaling pathway is activated, β-catenin maintains a stable state of non-phosphorylation, and non-phosphorylated β-catenin can be transported into the nucleus through Rac1 and other factors, and plays a transcriptional regulatory role by binding to LEF/TCF transcription factors in the nucleus, activates downstream target genes such as C-myc and Cyclin D1, and promotes cell proliferation. Therefore, abnormal activation of the Wnt signaling pathway in tumor cells will lead to abnormal proliferation of tumors. In order to explore the inhibitory mechanism of the compound on the proliferation of tumor cell lines, the compound AN10250399, AN10250421 or AN10250484 was used to treat sensitive cells Colo205, DU4475 and HepG2, and Western blot was used to detect the content of non-phosphorylated β-catenin in the Wnt pathway to clarify the effect of the compound on content of the non-phosphorylated β-catenin.
Add 500 μL of the compound with the highest concentration shown in FIG. 1 to each well of the 6-well cell culture plate, and make a 10-fold gradient dilution of the compound concentration. Then 500 μL of 10^6 Colo205, DU4475 and HepG2 or 500 μL of medium were inoculated into each well, and corresponding solvent treatment was performed simultaneously as negative control wells. The cells were placed in a 5% CO2 cell incubator, cultured overnight at 37° C. The culture medium was removed, washed once with PBS, 200 μL of RIPA buffer containing protease inhibitors was added to each well, and the protein lysate was collected after lysing on ice for 20 min. Add an appropriate amount of concentrated SDS-PAGE protein loading buffer to the collected protein lysate samples, and heat at 100° C. or in a boiling water bath for 3-5 minutes to fully denature the protein. Load the protein sample directly to the SDS-PAGE gel for electrophoresis separation, transfer the protein on the SDS-PAGE gel to the PVDF membrane; after the transfer was completed, the protein was blocked by Western blocking solution, then Rabbit anti-β-catenin non-phospho S37/After T41 (ab278503) was added and the protein was incubated at room temperature for one hour and washed, the content of non-phosphorylated β-catenin was detected by incubation with Goat Anti-Rabbit IgG H&L (HRP) (ab6721). As a control, glyceraldehyde-3-phosphate dehydrogenase (GAPDH) was used as an internal standard protein

[3] = tested on: non-phosphorylated β-catenin; test: Western blot of non-phosphorylated β-catenin content in HepG2 cells; settings: overnight, read-out: Non-phosphorylated β-catenin content inhibition IC50
Text: as §1, §2

[4] = tested on: non-phosphorylated β-catenin; test: Non-phosphorylated β-catenin content in Colo205-LUC-TCF/LEF cells, compound plus MG132; settings: 200 nM compound plus 2 μM MG132, 4 hours, FIG. 2
Description: Add 500 ul medium containing 200 nM compound plus 2 μM MG132 or 200 nM compound plus control solvent to each well of a 6-well cell culture plate, then add 500 ul containing 10^6 Colo205-LUC-TCF/LEF cells respectively, and incubate for 4 hours Finally, the protein was collected to detect the content of non-phosphorylated β-catenin.

IC50 [1]	IC50 ([2]; overnight, Western blot, read-out: Non-phosphorylated β-catenin content inhibition IC50)	IC50 [3]	SMILES	Effect on content of non-phosphorylated β-catenin (active β-catenin), in words ([2]; FIG. 1)	Effect of MG132 on the reduction of non-phosphorylated β-catenin content caused by AN10250484 [4]
2.2 nM	10 nM	51.6 nM	Cc1nc(NCc2ccc(Oc3cnc(C(F)(F)F)nc3)nc2)nc2c1NC(=O)[C@H](C)N2C [AN10250421]	decrease the content of non-phosphorylated β-catenin	
			CC(C)C[C@@H](C=O)NC(=O)[C@H](CC(C)C)NC(=O)[C@H](CC(C)C)NC(=O)OCc1ccccc1 [MG132] (Cbz-Leu-Leu-Leu-aldehyde)		reverses the reduction of the content of non-phosphorylated β-catenin
